# Measured values taken from the NIST ThermoML archive (doi:10.1016/j.jct.2019.105891).
# Numbers after ± are expanded uncertainties.
# Assays:
# [1] = xn = mol fraction of the nth substance listed; settings: 100 kPa, Liquid, Falling or rolling sphere viscometry
# [2] = refractive index (Na D-line) (dimensionless); xn = mol fraction of the nth substance listed; settings: 100 kPa, Liquid, Standard Abbe refractometry
compound,measurement,setting,value
Nc1ccccc1 [aniline] + CCn1cc[n+](C)c1.F[B-](F)(F)F,viscosity,"[1]; 293.15 K, x2 = 0",4.38 ± 0.26 mPa·s
same,viscosity,"[1]; 293.15 K, x2 = 0.1008",6.84 ± 0.48 mPa·s
same,viscosity,"[1]; 293.15 K, x2 = 0.2035",9.46 ± 0.64 mPa·s
same,viscosity,"[1]; 293.15 K, x2 = 0.3059",12.58 ± 0.83 mPa·s
same,viscosity,"[1]; 293.15 K, x2 = 0.4053",15.93 ± 1 mPa·s
same,viscosity,"[1]; 293.15 K, x2 = 0.5073",20.31 ± 1.3 mPa·s
same,viscosity,"[1]; 293.15 K, x2 = 0.6013",24.51 ± 1.6 mPa·s
same,viscosity,"[1]; 293.15 K, x2 = 0.7046",28.93 ± 1.8 mPa·s
same,viscosity,"[1]; 293.15 K, x2 = 0.8067",33.76 ± 2.1 mPa·s
same,viscosity,"[1]; 293.15 K, x2 = 0.9059",39.55 ± 2.5 mPa·s
same,viscosity,"[1]; 303.15 K, x2 = 0",3.24 ± 0.2 mPa·s
same,viscosity,"[1]; 303.15 K, x2 = 0.1008",4.88 ± 0.35 mPa·s
same,viscosity,"[1]; 303.15 K, x2 = 0.2035",6.99 ± 0.47 mPa·s
same,viscosity,"[1]; 303.15 K, x2 = 0.3059",8.93 ± 0.58 mPa·s
same,viscosity,"[1]; 303.15 K, x2 = 0.4053",11.33 ± 0.73 mPa·s
same,viscosity,"[1]; 303.15 K, x2 = 0.5073",14.07 ± 0.9 mPa·s
same,viscosity,"[1]; 303.15 K, x2 = 0.6013",17.1 ± 1.1 mPa·s
same,viscosity,"[1]; 303.15 K, x2 = 0.7046",20.39 ± 1.3 mPa·s
same,viscosity,"[1]; 303.15 K, x2 = 0.8067",23.93 ± 1.5 mPa·s
same,viscosity,"[1]; 303.15 K, x2 = 0.9059",27.15 ± 1.7 mPa·s
same,viscosity,"[1]; 313.15 K, x2 = 0",2.47 ± 0.15 mPa·s
same,viscosity,"[1]; 313.15 K, x2 = 0.1008",3.66 ± 0.26 mPa·s
same,viscosity,"[1]; 313.15 K, x2 = 0.2035",5.16 ± 0.35 mPa·s
same,viscosity,"[1]; 313.15 K, x2 = 0.3059",6.81 ± 0.45 mPa·s
same,viscosity,"[1]; 313.15 K, x2 = 0.4053",8.59 ± 0.55 mPa·s
same,viscosity,"[1]; 313.15 K, x2 = 0.5073",10.48 ± 0.67 mPa·s
same,viscosity,"[1]; 313.15 K, x2 = 0.6013",12.51 ± 0.79 mPa·s
same,viscosity,"[1]; 313.15 K, x2 = 0.7046",14.91 ± 0.93 mPa·s
same,viscosity,"[1]; 313.15 K, x2 = 0.8067",17.35 ± 1.1 mPa·s
same,viscosity,"[1]; 313.15 K, x2 = 0.9059",19.68 ± 1.2 mPa·s
same,viscosity,"[1]; 323.15 K, x2 = 0",1.95 ± 0.12 mPa·s
same,viscosity,"[1]; 323.15 K, x2 = 0.1008",2.66 ± 0.19 mPa·s
same,viscosity,"[1]; 323.15 K, x2 = 0.2035",3.89 ± 0.26 mPa·s
same,viscosity,"[1]; 323.15 K, x2 = 0.3059",5.07 ± 0.33 mPa·s
same,viscosity,"[1]; 323.15 K, x2 = 0.4053",6.51 ± 0.42 mPa·s
same,viscosity,"[1]; 323.15 K, x2 = 0.5073",7.99 ± 0.51 mPa·s
same,viscosity,"[1]; 323.15 K, x2 = 0.6013",9.51 ± 0.6 mPa·s
same,viscosity,"[1]; 323.15 K, x2 = 0.7046",11.06 ± 0.69 mPa·s
same,viscosity,"[1]; 323.15 K, x2 = 0.8067",12.99 ± 0.81 mPa·s
same,viscosity,"[1]; 323.15 K, x2 = 0.9059",14.9 ± 0.92 mPa·s
same,refractive index,"[2]; 293.15 K, x2 = 0",1.58481 ± 0.001
same,refractive index,"[2]; 293.15 K, x2 = 0.1008",1.56571 ± 0.0024
same,refractive index,"[2]; 293.15 K, x2 = 0.2035",1.54192 ± 0.0024
same,refractive index,"[2]; 293.15 K, x2 = 0.3059",1.52125 ± 0.0023
same,refractive index,"[2]; 293.15 K, x2 = 0.4053",1.50001 ± 0.0023
same,refractive index,"[2]; 293.15 K, x2 = 0.5073",1.47963 ± 0.0022
same,refractive index,"[2]; 293.15 K, x2 = 0.6013",1.46255 ± 0.0019
same,refractive index,"[2]; 293.15 K, x2 = 0.7046",1.44852 ± 0.0017
same,refractive index,"[2]; 293.15 K, x2 = 0.8067",1.43589 ± 0.0016
same,refractive index,"[2]; 293.15 K, x2 = 0.9059",1.42458 ± 0.0015
same,refractive index,"[2]; 303.15 K, x2 = 0",1.58152 ± 0.001
same,refractive index,"[2]; 303.15 K, x2 = 0.1008",1.56202 ± 0.0024
same,refractive index,"[2]; 303.15 K, x2 = 0.2035",1.53814 ± 0.0024
same,refractive index,"[2]; 303.15 K, x2 = 0.3059",1.51691 ± 0.0023
same,refractive index,"[2]; 303.15 K, x2 = 0.4053",1.49592 ± 0.0023
same,refractive index,"[2]; 303.15 K, x2 = 0.5073",1.47616 ± 0.0022
same,refractive index,"[2]; 303.15 K, x2 = 0.6013",1.45885 ± 0.0019
same,refractive index,"[2]; 303.15 K, x2 = 0.7046",1.44449 ± 0.0017
same,refractive index,"[2]; 303.15 K, x2 = 0.8067",1.43188 ± 0.0016
same,refractive index,"[2]; 303.15 K, x2 = 0.9059",1.42066 ± 0.0015
same,refractive index,"[2]; 313.15 K, x2 = 0",1.57823 ± 0.001
same,refractive index,"[2]; 313.15 K, x2 = 0.1008",1.55833 ± 0.0024
same,refractive index,"[2]; 313.15 K, x2 = 0.2035",1.53436 ± 0.0024
same,refractive index,"[2]; 313.15 K, x2 = 0.3059",1.51285 ± 0.0024
same,refractive index,"[2]; 313.15 K, x2 = 0.4053",1.49183 ± 0.0022
same,refractive index,"[2]; 313.15 K, x2 = 0.5073",1.47269 ± 0.0022
same,refractive index,"[2]; 313.15 K, x2 = 0.6013",1.45515 ± 0.0019
same,refractive index,"[2]; 313.15 K, x2 = 0.7046",1.44126 ± 0.0017
same,refractive index,"[2]; 313.15 K, x2 = 0.8067",1.42857 ± 0.0016
same,refractive index,"[2]; 313.15 K, x2 = 0.9059",1.41748 ± 0.0015
same,refractive index,"[2]; 323.15 K, x2 = 0",1.57494 ± 0.001
same,refractive index,"[2]; 323.15 K, x2 = 0.1008",1.55464 ± 0.0024
same,refractive index,"[2]; 323.15 K, x2 = 0.2035",1.53058 ± 0.0025
same,refractive index,"[2]; 323.15 K, x2 = 0.3059",1.5078 ± 0.0024
same,refractive index,"[2]; 323.15 K, x2 = 0.4053",1.48774 ± 0.0022
same,refractive index,"[2]; 323.15 K, x2 = 0.5073",1.46922 ± 0.0021
same,refractive index,"[2]; 323.15 K, x2 = 0.6013",1.45245 ± 0.0019
same,refractive index,"[2]; 323.15 K, x2 = 0.7046",1.43823 ± 0.0017
same,refractive index,"[2]; 323.15 K, x2 = 0.8067",1.42556 ± 0.0016
same,refractive index,"[2]; 323.15 K, x2 = 0.9059",1.41454 ± 0.0015
